US9056865B2, “Pyridine-2-derivatives as smoothened receptor modulators” (Pfizer Inc., priority 2010, dated 2015)

How the values were obtained:
Gli-Luc/MEF cells = assay: Gli-Luc/MEF assay; format: cell-based, mouse; settings: Mus musculus, MEF; Shh-stimulated luciferase, 48 hours
Procedure, shortened: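 Shh-stimulated luciferase readout (Bright-Glo) after 48 h, 37 °C, 5% CO2, used to derive IC50 of inhibition. Gli-Luc transgenic mouse MEFs received test compounds at final […] in 3-fold dilutions, with recombinant mouse Shh added immediately at final 2 μg/mL.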

human Smo = human Smo (Homo sapiens (Human), UniProt Q99835); assay: Smo radioligand competition binding assay; settings: for inhibition at 0.05 µM: 0.05 μM test compound, read-out: Smo % inh. @ 0.05 μM
Procedure, shortened: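 Membranes from HEK293 cells expressing surface human Smo 181-781 (40 μg protein/well) incubated 2 h at room temperature with test compound and tritiated Smo antagonist (3 nM), pH 7.5 Tris buffer; filtration and scintillation counting. Non-specific binding defined with 30 μM cold antagonist; IC50 from four-parameter sigmoidal fit.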

Chain of human Smo (Q99835 181-787): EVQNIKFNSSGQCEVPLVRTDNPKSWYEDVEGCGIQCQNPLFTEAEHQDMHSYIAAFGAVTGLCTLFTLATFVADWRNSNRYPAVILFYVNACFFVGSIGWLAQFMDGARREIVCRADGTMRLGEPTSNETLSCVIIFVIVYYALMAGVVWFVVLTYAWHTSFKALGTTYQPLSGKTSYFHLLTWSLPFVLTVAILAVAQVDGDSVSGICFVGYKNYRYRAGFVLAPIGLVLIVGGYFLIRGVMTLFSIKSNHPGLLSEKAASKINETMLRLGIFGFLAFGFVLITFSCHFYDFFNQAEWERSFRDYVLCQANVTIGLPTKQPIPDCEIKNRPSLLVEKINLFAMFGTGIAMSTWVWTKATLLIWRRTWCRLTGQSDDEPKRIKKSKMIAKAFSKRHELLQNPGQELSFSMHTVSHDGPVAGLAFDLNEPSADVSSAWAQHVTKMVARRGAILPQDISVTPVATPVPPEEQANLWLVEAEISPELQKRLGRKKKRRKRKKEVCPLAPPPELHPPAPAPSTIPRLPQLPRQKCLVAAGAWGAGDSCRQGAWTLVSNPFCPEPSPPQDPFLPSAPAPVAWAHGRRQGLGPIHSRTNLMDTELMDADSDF

Structure (SMILES) | IC50 (Gli-Luc/MEF cells) [µM] | IC50 (human Smo) [µM] | inhibition at 0.05 µM (human Smo) [%]
Cc1cccnc1-c1cc(N2CCC(NC(=O)CN(C)C)CC2)ncc1Cl [Example A-31, N-(1-(5′-chloro-3-methyl-[2,4′-bipyridin]-2′-yl)piperidin-4-yl)-2-(dimethylamino)acetamide] | 0.0208 | 0.0434 | 89.2
Cc1cnc(-c2cc(N3CCN(S(=O)(=O)CCO)CC3)ncc2Cl)c(C)c1 [Example A-111, 2-{[4-(5′-chloro-3,5-dimethyl-2,4′-bipyridin-2′-yl)piperazin-1-yl]sulfonyl}ethanol] | 0.0102 | 0.0233 | 95
CCN(CC)C(=O)COC1CCN(c2cc(-c3ncccc3C)c(Cl)cn2)CC1 [Example A-41, 2-{[1-(5′-chloro-3-methyl-2,4′-bipyridin-2′-yl)piperidin-4-yl]oxy}-N,N-diethylacetamide] | 0.0285 | 0.131 | 82.3
Cc1cccnc1-c1cc(N2CCC(C(=O)NCC3CN(CC4CC4)C(=O)CO3)CC2)ncc1Cl (stereo not shown) [Example A-74, 1-(5′-chloro-3-methyl-2,4′-bipyridin-2′-yl)-N-{[4-(cyclopropylmethyl)-5-oxomorpholin-2-yl]methyl}piperidine-4-carboxamide] | 0.023 | 0.0255 | 97.8
COCCS(=O)(=O)N1CCN(c2cc(-c3ncc(C)cc3C)ccn2)CC1 [Example A-155, 2′-{4-[(2-methoxyethyl)sulfonyl]piperazin-1-yl}-3,5-dimethyl-2,4′-bipyridine] | 0.045 | 0.097 | 77.1
Cc1cc(F)cnc1-c1cc(N2CCC(NC(=O)CCS(C)(=O)=O)CC2)ncc1Cl [Example A-144, N-[1-(5′-chloro-5-fluoro-3-methyl-2,4′-bipyridin-2′-yl)piperidin-4-yl]-3-(methylsulfonyl)propanamide] | 0.0166 | 0.0298 | 91.3
Cc1cnc(-c2cc(N3CCC(NS(C)(=O)=O)CC3)ncc2Cl)c(C)c1 [Example A-14, N-[1-(5′-chloro-3,5-dimethyl-2,4′-bipyridin-2′-yl)piperidin-4-yl]methanesulfonamide] | 0.0164 | 0.0064 | 95
COC(=O)N1CCN(c2cc(-c3ncccc3C)c(Cl)cn2)CC1 [Example A-24, methyl 4-(5′-chloro-3-methyl-2,4′-bipyridin-2′-yl)piperazine-1-carboxylate] | 0.126 | 0.243 | 69.3
COCCS(=O)(=O)NC1CCN(c2ccc(Cl)c(-c3ccccn3)n2)CC1 [Example A-123, N-[1-(3-chloro-2,2′-bipyridin-6-yl)piperidin-4-yl]-2-methoxyethanesulfonamide] | 0.0141 | 0.0267 | 90.4
Cc1cccnc1-c1cc(N2CCN(c3ncc(Br)cn3)CC2)ncc1Cl [Example A-46, 2′-[4-(5-bromopyrimidin-2-yl)piperazin-1-yl]-5′-chloro-3-methyl-2,4′-bipyridine] | 0.0211 |  | 97.6
Cc1cccnc1-c1cc(N2CCN(c3ccc(C#N)cn3)CC2)ncc1Cl [Example A-19, 6-[4-(5′-chloro-3-methyl-2,4′-bipyridin-2′-yl)piperazin-1-yl]nicatinonitrile] | 0.0101 | 0.0375 | 91.5
Cc1cccnc1-c1cc(N2CCC(C(=O)NC[C@H]3CCCO3)CC2)ncc1Cl [Example A-63, 1-(5′-chloro-3-methyl-2,4′-bipyridin-2′-yl)-N-[(2R)-tetrahydrofuran-2-ylmethyl]piperidine-4-carboxamide] | 0.0836 | 0.137 | 82.5
Cc1cc(F)cnc1-c1cc(N2CCN(S(=O)(=O)CC(C)(C)O)CC2)ncc1Cl [Example A-152, 1-{[4-(5′-chloro-5-fluoro-3-methyl-2,4′-bipyridin-2′-yl)piperazin-1-yl]sulfonyl}-2-methylpropan-2-ol] | 0.0112 |  | 95.9
Cc1cnc(-c2ccnc(N3CCN(C(=O)CN4CCOCC4)CC3)c2)c(C)c1 [Example A-157, 1-[4-(3,5-dimethyl-2,4′-bipyridin-2′-yl)piperazin-1-yl]-2-(morpholin-4-yl)ethanone] | 0.00358 | 0.0148 | 101
Cc1cc(F)cnc1-c1cc(N2CCN(S(=O)(=O)CCO)CC2)ncc1Cl [Example A-150, 2-{[4-(5′-chloro-5-fluoro-3-methyl-2,4′-bipyridin-2′-yl)piperazin-1-yl]sulfonyl}ethanol] | 0.0295 | 0.0809 | 76.9
Cc1cnc(-c2cc(N3CCC(O)CC3)ncc2Cl)c(C)c1 [Example A-94, 1-(5′-chloro-3,5-dimethyl-2,4′-bipyridin-2′-yl)piperidin-4-ol] | 0.0284 | 0.0442 | 88

Structure (SMILES) | IC50 (Gli-Luc/MEF cells) [µM] | IC50 (human Smo) [µM] | inhibition at 0.05 µM (human Smo) [%]
Cc1cccnc1-c1cc(N2CCC(C(=O)N3CCN(c4ccc(O)nn4)CC3)CC2)ncc1Cl [Example A-82, 6-(4-{[1-(5′-chloro-3-methyl-2,4′-bipyridin-2′-yl)piperidin-4-yl]carbonyl}piperazin-1-yl)pyridazin-3-ol] | 0.0388 | 0.0392 | 92.6
Cc1cnc(-c2cc(N3CCN(C(=O)CCS(C)(=O)=O)CC3)ncc2F)c(C)c1 [Example A-142, 1-[4-(5′-fluoro-3,5-dimethyl-2,4′-bipyridin-2′-yl)piperazin-1-yl]-3-(methylsulfonyl)propan-1-one] | 0.0166 | 0.0204 | 92.7
Cc1cnc(-c2nc(N3CCC(NC(=O)CO)CC3)ccc2Cl)c(C)c1 [Example A-140, N-[1-(3-chloro-3′,5′-dimethyl-2,2′-bipyridin-6-yl)piperidin-4-yl]-2-hydroxyacetamide] | 0.0195 | 0.0477 | 92
Cc1cc(Cl)cnc1-c1cc(N2CCC(NS(C)(=O)=O)CC2)ncc1Cl [Example A-109, N-[1-(5,5′-dichloro-3-methyl-2,4′-bipyridin-2′-yl)piperidin-4-yl]methanesulfonamide] | 0.00681 | 0.0205 | 97.4
COc1cnc(NC(=O)C2CCN(c3cc(-c4ncccc4C)c(Cl)cn3)CC2)cn1 [Example A-59, 1-(5′-chloro-3-methyl-2,4′-bipyridin-2′-yl)-N-(5-methoxypyrazin-2-yl)piperidine-4-carboxamide] | 0.0212 | 0.0714 | 89.5
CC(=O)N1CCN(c2cc(-c3ncccc3C)c(Cl)cn2)CC1 [Example A-23, 2′-(4-acetylpiperazin-1-yl)-5′-chloro-3-methyl-2,4′-bipyridine] | 0.194 | 0.417 | 59.5
CC(C)(O)CC(=O)N1CCN(c2ccc(Cl)c(-c3ccccn3)n2)CC1 [Example A-90, 4-[4-(3-chloro-2,2′-bipyridin-6-yl)piperazin-1-yl]-2-methyl-4-oxobutan-2-ol] | 0.0669 | 0.111 | 82.5
Cc1ccc(-c2cc(N3CCC(NS(C)(=O)=O)CC3)ncc2Cl)nc1 [Example A-9, N-[1-(5′-chloro-5-methyl-2,4′-bipyridin-2′-yl)piperidin-4-yl]methanesulfonamide] | 0.226 | 0.075 | 65
Cc1cccnc1-c1cc(N2CCN(C(=O)C(C)(C)C)CC2)ncc1Cl [Example A-43, 5′-chloro-2′-[4-(2,2-dimethylpropanoyl)piperazin-1-yl]-3-methyl-2,4′-bipyridine] | 0.0191 | 0.0255 | 95
Cc1cnc(-c2cc(N3CCC(S(C)(=O)=O)CC3)ncc2Cl)c(C)c1 [Example A-134, 5′-chloro-3,5-dimethyl-2′-[4-(methylsulfonyl)piperidin-1-yl]-2,4′-bipyridine] | 0.0377 | 0.114 | 80.8
COCC(=O)NC1CCN(c2cc(-c3ncc(C)cc3C)c(Cl)cn2)CC1 [Example A-135, N-[1-(5′-chloro-3,5-dimethyl-2,4′-bipyridin-2′-yl)piperidin-4-yl]-2-methoxyacetamide] | 0.0076 | 0.04 | 94
CS(=O)(=O)NC1CCN(c2cc(-c3ccc(C(F)(F)F)cn3)c(Cl)cn2)CC1 [Example A-13, N-{1-[5′-chloro-5-(trifluoromethyl)-2,4′-bipyridin-2′-yl]piperidin-4-yl}methanesulfonamide] | 0.404 | 0.11 | 56
Cc1cnc(-c2ccnc(N3CCN(C(=O)CN4C[C@@H](C)O[C@@H](C)C4)CC3)c2)c(C)c1 [Example A-156, 1-[4-(3,5-dimethyl-2,4′-bipyridin-2′-yl)piperazin-1-yl]-2-[(2R,6S)-2,6-dimethylmorpholin-4-yl]ethanone] | 0.00657 | 0.0121 | 102
CS(=O)(=O)CC1CCN(c2ncc(Cl)c(-c3ccccn3)n2)CC1 [Example A-92, 5-chloro-2-{4-[(methylsulfonyl)methyl]piperidin-1-yl}-4-pyridin-2-ylpyrimidine] | 0.059 | 0.132 | 79.8
COC(=O)NC1CCN(c2cc(-c3ncccc3C)c(Cl)cn2)CC1 [Example A-32, methyl [1-(5′-chloro-3-methyl-2,4′-bipyridin-2′-yl)piperidin-4-yl]carbamate] | 0.0274 | 0.0779 | 86.6
